# Reference: PubChem BioAssay AID1918952 (Molecular Pharmacology Branch, DTP, NCI, 2023)
# Tested on: LG0703-F948-PDC complex spheroid viability
# Assay: Anticancer human tumor LG0703-F948-PDC patient-derived lung adenocarcinoma cell line growth inhibition
# Conditions: for IC50: curve of first compound; for viability, T/C: stronger effect = lower value
# Text: Multicellular complex tumor spheroid response to LSD1 Inhibitor Iadademstat in combination with a variety of drugs and investigational agents in selected tumor cell lines
# The current study was undertaken to assess response to LSD1 inhibitors in combination with standard-of-care drugs and investigational agents in solid tumor complex spheroid models as well as in the K-562 leukemia. Complex spheroids include a stromal component modeled by human endothelial cells (HUVEC) and fibroblasts modeled by human mesenchymal stem cells (MSCs). The concentration ranges selected for each drug and investigational agent were based upon clinically achievable concentrations if the clinical Cmax of the agent was known.
# Compounds. The drugs and investigational agents used in this study are listed on Table 1. All of the agents used, including staurosporine (NSC755774) and gemcitabine (NSC613327), were obtained from the Developmental Therapeutics Program, NCI. FDA-approved anticancer drugs are available from the NCI at http://dtp.nci.nih.gov/branches/dscb/oncology_drugset_explanation.html. Drugs and investigational agents were >95% pure by proton nuclear magnetic resonance (NMR) and liquid chromatography/mass spectrometry (LC/MS). Stock solutions were prepared at 400x in DMSO, stored at -70 degrees C, and diluted in fresh medium prior to their use. The final concentration of DMSO in cell culture wells never exceeded 0.25% (v/v). The FDA-approved anticancer drug set is available from the Developmental Therapeutics Program at https://dtp.cancer.gov/organization/dscb/obtaining/available_plates.htm. All drugs and investigational agents were tested over a range starting from a high concentration at or near the clinical Cmax and decreasing in half-log increments. If the clinical Cmax for an agent had not been determined, the highest concentration tested was 10 microM.
# Cell Lines. The patient-derived cancer cell (PDC) lines: 292921-168-R-J2-PDC, K24384-001-R-PDC, and 521955-158-R2-J5-PDC pancreatic carcinomas, 556581-035-R-J1 ovarian carcinoma, 324938-238-R-J1-PDC, 855422-203-R-J1-PDC and 883617-216-R-J1-PDC urothelial bladder carcinomas, 743489-274-T-PDC renal cell carcinoma, 138582-R-J1 Merkel cell tumor, K60290-347-R-J1 and K57222-313-R-J1-PDC glioblastomas, 653999-131-R-J2-PDC, LG0703-F948-PDC, and 349418-098-R-PDC non-small cell lung carcinomas, 885512-296-R-J2-PDC, 171881-019-R-J1-PDC breast carcinomas and 186277-243-T-J2-PDC and 233499-124-R-J2-PDC colon carcinomas were obtained from the NCI Patient-Derived Models Repository (PDMR, https://pdmr.cancer.gov). The established cell lines NCI/ADR-RES (RRID:CVCL_14520 and OVCAR-5 (RRID:CVCL_1628) ovarian carcinomas, 786-O (RRID:CVCL_1051) and A498 (RRID:CVCL_A498) renal cell carcinoma, NCI-H211 (ATCC, cat. CRL-5824; RRID:CVCL_1529), NCI-H196 (ATCC, cat. CRL-5823, RRID:CVCL_1509), SW 1271 (ATCC, cat. CRL-2177, RRID:CVCL_1716) and NCI-H1876 (ATCC, cat. CRL-5902, RRID:CVCL_1503) small cell lung carcinomas, MDA-MB-231 (RRID:CVCL_0062) and MDA-MB-468 (RRID:CVCL_0419)breast carcinomas (10-12). Pooled donor human umbilical vein endothelial cells (HUVEC, Lonza, cat. CC-2519) and human mesenchymal stem cells (hMSC, Lonza, cat. PT-2501) were purchased from Lonza (Walkersville, MD).
# Cell Culture. All cells were maintained in an incubator at 37 degrees C and 5% CO2 with 95% humidity. The PDC lines were cultured according to standard operating procedures established by the NCI PDMR (https://pdmr.cancer.gov). Briefly all PDCs were thawed and cultured in Matrigel-coated flasks prepared with a working solution of 1X Ham's F-12 nutrient mix, without supplementation (Invitrogen, Waltham, MA, cat. 11765054), 100 U/mL penicillin-streptomycin (Invitrogen, cat. 15140122), and 2.5% Matrigel (Corning Inc., Corning, NY, cat. 354248) for the first three passages. […]
# 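Note: spheroids exposed to agents for seven days before readout.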
# 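Throughout, for viability, T/C: 100% = DMSO vehicle control wells as normalization base.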
smiles,measurement,setting,value
COc1cc(C2c3cc4c(cc3C(OC3OC5COC(C)OC5C(O)C3O)C3COC(=O)C23)OCO4)cc(OC)c1O (stereo not given) + NC1CC1c1ccc(-c2cccc(O)c2)cc1,IC50,second compound 0.1 µM,> 3 µM
same,IC50,second compound 0.316 µM,> 3 µM
same,IC50,second compound 1 µM,> 3 µM
same,IC50,second compound 3.16 µM,> 3 µM
same,IC50,second compound 10 µM,> 3 µM
same,"viability, T/C","second compound 0.1 µM, first compound 0.00949 µM",117%
same,"viability, T/C","second compound 0.1 µM, first compound 0.03 µM",126%
same,"viability, T/C","second compound 0.1 µM, first compound 0.0949 µM",101%
same,"viability, T/C","second compound 0.1 µM, first compound 0.3 µM",98.5%
same,"viability, T/C","second compound 0.1 µM, first compound 0.949 µM",89.5%
same,"viability, T/C","second compound 0.1 µM, first compound 3 µM",66.9%
same,"viability, T/C","second compound 0.316 µM, first compound 0.00949 µM",117%
same,"viability, T/C","second compound 0.316 µM, first compound 0.03 µM",111%
same,"viability, T/C","second compound 0.316 µM, first compound 0.0949 µM",106%
same,"viability, T/C","second compound 0.316 µM, first compound 0.3 µM",88.4%
same,"viability, T/C","second compound 0.316 µM, first compound 0.949 µM",92.2%
same,"viability, T/C","second compound 0.316 µM, first compound 3 µM",75.4%
same,"viability, T/C","second compound 1 µM, first compound 0.00949 µM",104%
same,"viability, T/C","second compound 1 µM, first compound 0.03 µM",115%
same,"viability, T/C","second compound 1 µM, first compound 0.0949 µM",105%
same,"viability, T/C","second compound 1 µM, first compound 0.3 µM",95.9%
same,"viability, T/C","second compound 1 µM, first compound 0.949 µM",105%
same,"viability, T/C","second compound 1 µM, first compound 3 µM",77.8%
same,"viability, T/C","second compound 3.16 µM, first compound 0.00949 µM",102%
same,"viability, T/C","second compound 3.16 µM, first compound 0.03 µM",121%
same,"viability, T/C","second compound 3.16 µM, first compound 0.0949 µM",117%
same,"viability, T/C","second compound 3.16 µM, first compound 0.3 µM",100%
same,"viability, T/C","second compound 3.16 µM, first compound 0.949 µM",88.1%
same,"viability, T/C","second compound 3.16 µM, first compound 3 µM",86.2%
same,"viability, T/C","second compound 10 µM, first compound 0.00949 µM",104%
same,"viability, T/C","second compound 10 µM, first compound 0.03 µM",116%
same,"viability, T/C","second compound 10 µM, first compound 0.0949 µM",99.9%
same,"viability, T/C","second compound 10 µM, first compound 0.3 µM",103%
same,"viability, T/C","second compound 10 µM, first compound 0.949 µM",81.6%
same,"viability, T/C","second compound 10 µM, first compound 3 µM",66.8%
Nc1ncn(C2CC(O)C(CO)O2)c(=O)n1 (stereo not given) + NC1CC1c1ccc(-c2cccc(O)c2)cc1,IC50,second compound 0.1 µM,> 1 µM
same,IC50,second compound 0.316 µM,> 1 µM
same,IC50,second compound 1 µM,> 1 µM
same,IC50,second compound 3.16 µM,> 1 µM
same,IC50,second compound 10 µM,> 1 µM
same,"viability, T/C","second compound 0.1 µM, first compound 0.00316 µM",106%
same,"viability, T/C","second compound 0.1 µM, first compound 0.01 µM",111%
same,"viability, T/C","second compound 0.1 µM, first compound 0.0316 µM",99.3%
same,"viability, T/C","second compound 0.1 µM, first compound 0.1 µM",116%
same,"viability, T/C","second compound 0.1 µM, first compound 0.316 µM",85.4%
same,"viability, T/C","second compound 0.1 µM, first compound 1 µM",88.9%
same,"viability, T/C","second compound 0.316 µM, first compound 0.00316 µM",116%
same,"viability, T/C","second compound 0.316 µM, first compound 0.01 µM",117%
same,"viability, T/C","second compound 0.316 µM, first compound 0.0316 µM",106%
same,"viability, T/C","second compound 0.316 µM, first compound 0.1 µM",95.2%
same,"viability, T/C","second compound 0.316 µM, first compound 0.316 µM",95.7%
same,"viability, T/C","second compound 0.316 µM, first compound 1 µM",94.3%
same,"viability, T/C","second compound 1 µM, first compound 0.00316 µM",106%
same,"viability, T/C","second compound 1 µM, first compound 0.01 µM",103%
same,"viability, T/C","second compound 1 µM, first compound 0.0316 µM",104%
same,"viability, T/C","second compound 1 µM, first compound 0.1 µM",95.7%
same,"viability, T/C","second compound 1 µM, first compound 0.316 µM",96.3%
same,"viability, T/C","second compound 1 µM, first compound 1 µM",94.6%
same,"viability, T/C","second compound 3.16 µM, first compound 0.00316 µM",108%
same,"viability, T/C","second compound 3.16 µM, first compound 0.01 µM",112%
same,"viability, T/C","second compound 3.16 µM, first compound 0.0316 µM",99.8%
same,"viability, T/C","second compound 3.16 µM, first compound 0.1 µM",89.7%
same,"viability, T/C","second compound 3.16 µM, first compound 0.316 µM",105%
same,"viability, T/C","second compound 3.16 µM, first compound 1 µM",105%
same,"viability, T/C","second compound 10 µM, first compound 0.00316 µM",103%
same,"viability, T/C","second compound 10 µM, first compound 0.01 µM",104%
same,"viability, T/C","second compound 10 µM, first compound 0.0316 µM",107%
same,"viability, T/C","second compound 10 µM, first compound 0.1 µM",106%
same,"viability, T/C","second compound 10 µM, first compound 0.316 µM",98.4%
same,"viability, T/C","second compound 10 µM, first compound 1 µM",95.3%
